Assay results published in PubChem BioAssay (NCI).
Where “and” joins values, the source holds several entries; their conditions need not be identical. Equal entries are not always repeated.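 The compound was tested at five concentrations on cells cultured in 96-well plates, with a 48-hour exposure period. Abbreviation: GI50, concentration required for 50% inhibition of growth. The concentration for full growth arrest is given as TGI.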

Key:
Test in all cases: inhibition of tumour cell growth, NCI panel, 48 h
HS 578T breast = system: HS 578T breast
BT-549 breast = system: BT-549 breast
T-47D breast = system: T-47D breast
PC-3 prostate = system: PC-3 prostate
SNB-78 CNS = system: SNB-78 CNS
XF 498 CNS = system: XF 498 CNS
RXF-631 renal = system: RXF-631 renal
MDA-N = system: MDA-N

CC[C@H](CC#N)OC(=O)N[C@@H](C)c1cccc(NC(=O)Nc2ccc(-c3cnco3)c(OC)c2)c1
GI50 (HS 578T breast): 1.16 µM | TGI (HS 578T breast): > 51.6 µM | GI50 (BT-549 breast): 0.238 µM | TGI (BT-549 breast): 34 µM | GI50 (T-47D breast): 0.165 µM | TGI (T-47D breast): 21.4 µM | GI50 (PC-3 prostate): 0.0741 µM | TGI (PC-3 prostate): 31.4 µM

COc1cc([C@@H]2c3cc4c(cc3[C@@H](NC(=O)c3ccccc3)C3COC(=O)[C@@H]32)OCO4)cc(OC)c1O (stereo partly specified)
TGI (SNB-78 CNS): > 100 µM

O=C1C(Cl)=C(Nc2cccc(O)c2)C(=O)N1c1cc(Cl)c(Cl)cc1Cl
GI50 (HS 578T breast): 17.6 µM | TGI (HS 578T breast): 39.4 µM | GI50 (T-47D breast): 42.1 µM | TGI (T-47D breast): > 100 µM | GI50 (PC-3 prostate): 15.2 µM | TGI (PC-3 prostate): 31.6 µM

Oc1ccc(CCCCCCc2ccc(O)cc2)cc1
GI50 (HS 578T breast): 13.3 µM | TGI (HS 578T breast): 37.4 µM | GI50 (BT-549 breast): 2.94 µM | TGI (BT-549 breast): 18.7 µM | GI50 (T-47D breast): 8.03 µM | TGI (T-47D breast): 27.2 µM | GI50 (PC-3 prostate): 9.87 µM | TGI (PC-3 prostate): 27.5 µM

CC(=O)Nc1ccc2c(c1)oc(=O)c1cc(NC(C)=O)ccc12
GI50 (HS 578T breast): 63.4 µM | TGI (HS 578T breast): > 100 µM | GI50 (BT-549 breast): > 100 µM | TGI (BT-549 breast): > 100 µM | GI50 (T-47D breast): 59.6 µM | TGI (T-47D breast): > 100 µM | GI50 (PC-3 prostate): 92.4 µM | TGI (PC-3 prostate): > 100 µM

O=C1/C(=C/c2ccc(O)cc2)COc2ccc(-c3ccccc3)cc21
GI50 (HS 578T breast): 3.79 µM | TGI (HS 578T breast): 24.3 µM | GI50 (BT-549 breast): 2.64 µM | TGI (BT-549 breast): 13 µM | GI50 (T-47D breast): 3.76 µM | TGI (T-47D breast): 25.6 µM | GI50 (PC-3 prostate): 5.09 µM | TGI (PC-3 prostate): > 63.9 µM

CCN(Cc1ccccc1OC)c1ccc(CO)c(Cl)c1
GI50 (HS 578T breast): 13.4 µM | TGI (HS 578T breast): 37.2 µM | GI50 (BT-549 breast): 12.8 µM | TGI (BT-549 breast): 26 µM | GI50 (T-47D breast): 0.091 µM | TGI (T-47D breast): 0.685 µM | GI50 (PC-3 prostate): 12.3 µM | TGI (PC-3 prostate): 27.9 µM

OCc1ccc(-c2nn(Cc3ccccc3)c3ccccc23)o1
GI50 (HS 578T breast): 17.8 µM and 15.9 µM | TGI (HS 578T breast): > 69.9 µM and 42.4 µM | GI50 (BT-549 breast): 17.3 µM and 22.7 µM | TGI (BT-549 breast): 37.4 µM and 53 µM | GI50 (T-47D breast): 11.1 µM and 12.4 µM | TGI (T-47D breast): 43.4 µM and 26.2 µM | GI50 (PC-3 prostate): 21.8 µM and 16.6 µM | TGI (PC-3 prostate): 64.7 µM and 36 µM

CC(=O)Oc1ccc(O)c(O)c1C/C=C(\C)CC/C=C(\C)CC/C=C(\C)CCC=C(C)C
TGI (XF 498 CNS): 0.818 µM | TGI (SNB-78 CNS): 1.34 µM

CC(C)(C)c1ccc(S(=O)(=O)N[C@H]2CC[C@H]3[C@@H]4CCc5cc(OS(=O)(=O)O)ccc5[C@H]4CC[C@]23C)cc1
GI50 (HS 578T breast): 2.69 µM | TGI (HS 578T breast): 7.27 µM | GI50 (BT-549 breast): 2.1 µM | TGI (BT-549 breast): 4.2 µM | GI50 (T-47D breast): 2.82 µM | TGI (T-47D breast): 9.96 µM | GI50 (PC-3 prostate): 4.19 µM | TGI (PC-3 prostate): 17.5 µM

CC(CNC(Cc1ccccc1)c1ccccc1)NC(Cc1ccccc1)c1ccccc1 (stereo unspecified)
GI50 (HS 578T breast): 2.64 µM | TGI (HS 578T breast): 8.27 µM | GI50 (BT-549 breast): 2.01 µM | TGI (BT-549 breast): 5.16 µM | GI50 (T-47D breast): 1.96 µM | TGI (T-47D breast): 4.95 µM | GI50 (PC-3 prostate): 2.3 µM | TGI (PC-3 prostate): 6.42 µM

CC(=O)NC1=C(C)C(=O)c2c(nc3n2CCC3O)C1=N (stereo unspecified)
TGI (XF 498 CNS): 9.04 µM | TGI (SNB-78 CNS): 8.56 µM

Clc1nc(Cl)c2ncn(Cc3ccc(COc4cccc(OCc5ccc(Cn6cnc7c(Cl)nc(Cl)nc76)cc5)c4)cc3)c2n1
GI50 (HS 578T breast): 54.1 µM | TGI (HS 578T breast): > 100 µM | GI50 (BT-549 breast): 25.6 µM | TGI (BT-549 breast): > 100 µM | GI50 (T-47D breast): 21.5 µM | TGI (T-47D breast): > 100 µM | GI50 (PC-3 prostate): 24.1 µM | TGI (PC-3 prostate): > 100 µM

CCOP(=O)(OCC)C(NC(c1ccccc1)c1ccccc1)c1cccc2ccccc12 (stereo unspecified)
GI50 (HS 578T breast): 29.9 µM | TGI (HS 578T breast): 67.3 µM | GI50 (BT-549 breast): 23.8 µM | TGI (BT-549 breast): 53.5 µM | GI50 (PC-3 prostate): 3.37 µM | TGI (PC-3 prostate): 13.9 µM

COc1cc(/C=C/C(=O)c2sc(Nc3ccccc3)nc2C)ccc1O
TGI (SNB-78 CNS): > 100 µM

Cc1nc2sc(C(=O)Nc3ccccc3)c(N)c2cc1C(=O)/C=C/c1ccccc1
GI50 (HS 578T breast): 2.79 µM | TGI (HS 578T breast): > 100 µM | GI50 (BT-549 breast): 1.71 µM | TGI (BT-549 breast): 3.63 µM | GI50 (T-47D breast): 2.48 µM | TGI (T-47D breast): 8.2 µM | GI50 (PC-3 prostate): 2.14 µM | TGI (PC-3 prostate): 5.55 µM

COc1ccc2c(c1)OC(N(C(C)=O)C(C)=O)=C(C#N)C2c1ccc(F)cc1 (stereo unspecified)
GI50 (HS 578T breast): 5.19 µM | TGI (HS 578T breast): > 100 µM | GI50 (BT-549 breast): 2.22 µM | TGI (BT-549 breast): 40.2 µM | GI50 (T-47D breast): 4.98 µM | TGI (T-47D breast): > 100 µM | GI50 (PC-3 prostate): 2.2 µM | TGI (PC-3 prostate): > 100 µM

CC(=O)OCC1OC(n2ccc(=O)[nH]c2=O)C(OC(C)=O)C1OC(C)=O (stereo unspecified)
GI50 (HS 578T breast): > 100 µM | TGI (HS 578T breast): > 100 µM | GI50 (BT-549 breast): > 100 µM | TGI (BT-549 breast): > 100 µM | GI50 (T-47D breast): > 100 µM | TGI (T-47D breast): > 100 µM | GI50 (PC-3 prostate): > 100 µM | TGI (PC-3 prostate): > 100 µM

COc1ccc(-c2cncn2-c2ccc(OC)cc2)cc1
GI50 (HS 578T breast): 17.5 µM | TGI (HS 578T breast): 56 µM | GI50 (BT-549 breast): 12.3 µM | TGI (BT-549 breast): 32.5 µM | GI50 (PC-3 prostate): 30 µM | TGI (PC-3 prostate): > 100 µM

COc1cc(-c2cn(-c3ccc(Cl)cc3)c(C)c2C(=O)C(F)(F)F)cc(OC)c1OC
GI50 (HS 578T breast): > 100 µM | TGI (HS 578T breast): > 100 µM | GI50 (BT-549 breast): 46.8 µM | TGI (BT-549 breast): > 100 µM | GI50 (T-47D breast): 6.95 µM | TGI (T-47D breast): > 100 µM | GI50 (PC-3 prostate): 13.6 µM | TGI (PC-3 prostate): > 100 µM

CC(=O)c1cc([N+](=O)[O-])ccc1OCC(=O)O
TGI (RXF-631 renal): > 100 µM | TGI (SNB-78 CNS): > 100 µM

CCCCn1cnc2c(SC)ncnc21
TGI (HS 578T breast): > 100 µM | TGI (MDA-N): > 100 µM | TGI (BT-549 breast): > 100 µM | TGI (T-47D breast): > 100 µM | TGI (PC-3 prostate): > 100 µM

CC/C=C\C/C=C\C/C=C\CCCCCCCC(=O)OCC
TGI (XF 498 CNS): > 100 µM

O=C(CSC(=S)N1CCOCC1)Nc1nc2c(s1)CCCC2
TGI (XF 498 CNS): > 100 µM | TGI (SNB-78 CNS): > 100 µM

COc1cc(CNc2ccc(C(C)C)cc2)cc(OC)c1OC
TGI (XF 498 CNS): 59 µM | TGI (SNB-78 CNS): > 100 µM

c1cnc2[nH]cc(-c3csc(-c4cn(CCCCN5CCOCC5)c5ccccc45)n3)c2c1
GI50 (HS 578T breast): 1.77 µM | TGI (HS 578T breast): 4.98 µM | GI50 (BT-549 breast): 2.13 µM | TGI (BT-549 breast): 5.19 µM | GI50 (T-47D breast): 1.33 µM | TGI (T-47D breast): 3.9 µM | GI50 (PC-3 prostate): 1.59 µM | TGI (PC-3 prostate): 4.01 µM

Clc1nc(Cl)c2c(ncn2C/C=C\Cn2cnc3c(Cl)nc(Cl)nc32)n1
GI50 (HS 578T breast): 1.44 µM | TGI (HS 578T breast): 5.36 µM | GI50 (BT-549 breast): 1.61 µM | TGI (BT-549 breast): 2.97 µM | GI50 (T-47D breast): 1.32 µM | TGI (T-47D breast): 3.06 µM | GI50 (PC-3 prostate): 2.31 µM | TGI (PC-3 prostate): 5.58 µM

COc1ccc(O)c(C#N)c1C#N
TGI (XF 498 CNS): > 100 µM | TGI (SNB-78 CNS): > 100 µM

CCC(CC)n1c(C)nc2c1C(=O)c1ccccc1C2=O
TGI (SNB-78 CNS): > 100 µM

COc1c(N2CCN(CN3C(=O)C(=Nc4ccc(S(=O)(=O)Nc5ncccn5)cc4)c4ccccc43)C(C)C2)c(F)cc2c(=O)c(C(=O)O)cn(C3CC3)c12 (stereo unspecified)
GI50 (HS 578T breast): > 50 µM | TGI (HS 578T breast): > 50 µM | GI50 (BT-549 breast): 19.6 µM | TGI (BT-549 breast): > 50 µM | GI50 (PC-3 prostate): > 50 µM | TGI (PC-3 prostate): > 50 µM

N#CC(C(=O)C(=O)NCCCNC(=O)C(=O)C(C#N)c1ccccc1)c1ccccc1 (stereo unspecified)
TGI (SNB-78 CNS): > 100 µM
